“Also recorded” adds a separate entry of the source.
Legend:
rodent models of ADPKD = settings: cited from earlier work; for cystogenesis: rodent models of ADPKD, by reducing cAMP production in the kidney
P2Y12 receptor = target: T1, P2Y12 receptor (Rattus norvegicus, UniProt Q9EPX4); assay: Blockade of P2Y12 receptor in primary cultures of rat hypothalamic cells: expression of AVP; type: cell-based
T1 construct: endogenous in cells; host or cells: primary cultures of rat hypothalamic cells

B6D2 mice = assay: Ticagrelor in diet (or clopidogrel in drinking water) for 14 days: urinary AVP, urine output and urine osmolality in mice; type: in vivo; settings: for effects shown in FIGS. 2-5 (urine output, urine osmolality, urinary AVP): comparison with other P2Y12 receptor antagonists
Experimental: The study evaluated the effect of increasing doses of ticagrelor from 0.05% to 0.25% (incremental doses of 0.05, 0.10, 0.15, 0.20 and 0.25%) administered to mice for 2 weeks and compared them with that obtained by administering increasing doses of clopidogrel bisulfate (20, 40 or 80 mg/kg bw/day). For this study adult B6D2 mice were used. Different doses of ticagrelor were administered embedded in diet. Clopidogrel bisulfate (Plavix® tablets) were powdered and dissolved in drinking water for administration. The concentration of clopidogrel in the water was adjusted on daily basis based on the water consumption by mice on the previous day.
Rodent diets containing ticagrelor at different concentrations were prepared as follows. 15 grams of ticagrelor was shipped to MP Biomedicals (Solon, Ohio, USA) for custom preparation of 10 kg of rodent chow in pellet form containing 0.15% ticagrelor. The custom-made diet was received and was stored at +4° C. Later in the study, for the preparation of diets containing 0.20% or 0.25%, the above custom-prepared diet (containing 0.15% ticagrelor) was used as a base and the required amount of ticagrelor was added. Diets containing 0.05 and 0.10% ticagrelor were prepared de novo.
Clopidogrel bisulfate was administered orally by mixing finely powdered Plavix® tablets (Bristol-Myers Squibb, New York, N.Y.) in drinking water. The concentration of the drug in the drinking water was adjusted daily based on the water consumption of the animals on the previous day. Three different doses (20, 40 and 80 mg/kg bw/day) were administered. Since it is not possible to work with more than 15 to 20 mice in metabolic cages at any given time, the experimental animals were handled in two batches in a staggered fashion. Urine samples were collected on day 0 (prior to the experimental period), on days 6/7 (end of the first week) and days 13/14 (end of the second week). Terminal blood samples were collected from the posterior vena cava at the time of euthanasia. Kidney tissues were collected and cortex and medulla were separated by sharp dissection and flash frozen for analysis. Within a few minutes after collection, blood samples were centrifuged at +4° C. and plasma was separated and frozen. Urinary AVP levels were assayed by ELISA.
(§1) Different doses of ticagrelor (0.05 to 0.25%) were administered to mice embedded in standard rodent chow (w/w) for 14 days. Twenty-four hour urine samples were collected from the mice by placing them in individual plastic metabolic cages (1 mouse/cage) for two consecutive days, with free access to food and water. Urine samples in the metabolic cages were collected under a layer of light mineral oil. The volumes of urine samples collected were recorded. Urine samples were centrifuged to remove particulate matter. Clear supernatants thus obtained were used for analysis. Blood samples were collected at the time of euthanasia on day 14, as per the protocol recommended by the AstraZeneca for samples destined for the determination of plasma ticagrelor. Briefly, under isoflourane anesthesia, blood from the posterior vena cava was collected and transferred to EDTA K-coated microtubes (Microvette®, Sarstedt, Nümbrecht, Germany). Plasma was separated by centrifugation within 30 min after collection and frozen at −80° C. The frozen samples were shipped in dry ice by FedEx to AstraZeneca (Mölndal, Sweden). At AstraZeneca R&D, the plasma concentration of ticagrelor was determined by liquid chromatography tandem mass spectrometry (LC-MS/MS). FIGS. 1-5 show the data obtained.

[1] = test system: lithium-induced NDI in rodent models; settings: cited from earlier work
[2] = test system: cAMP production in primary cultures of rat IMCD cells; assay: dDAVP-induced cAMP production in primary cultures of rat IMCD cells (EIA); type: cell-based
Experimental: FIG. 7 is a graph showing the effect of ticagrelor on dDAVP-induced cAMP production in primary cultures of rat IMCD cells: Cells were incubated for 48 h with ticagrelor (5 μM). During the second 24 hours, cells were challenged with dDAVP (20 nM).
dDAVP acting through the vasopressin V2 receptor in IMCD cells stimulates the production of cAMP (FIG. 7). In the collecting ducts in vivo, in the short-term AVP increases cellular cAMP levels to cause translocation of AQP2 protein from the subapical vesicles to apical plasma membrane, and thus increase the water permeability of the apical plasma membrane, the rate limiting barrier for transepithelial water transport. In the long-term, increased cellular cAMP levels induce transcriptional activation of AQP2 and other genes. […] Primary cultures of rat IMCD cells were prepared and incubated with desmopressin with/without ticagrelor (5 μM) as described above. For cAMP assay, the medium was gently aspirated, 200 μl of 0.1 M HCl was added to each insert and incubated for 20 min at room temperature. Then cells were scrapped off the semi-permeable support and lysed by pipetting up and down. The cell lysate was centrifuged at 1,000×g for 10 min. cAMP concentration in the supernatant was determined by an EIA kit (Cayman Chemical Co.) and normalized to the protein content of the wells (Pierce™ BCA Protein Assay Kit, Rockford, Ill.).

[3] = Plasma concentration of ticagrelor by LC-MS/MS in mice fed ticagrelor; type: in vivo; settings: corresponding to a dose of 0.15% or above in food, day 14
Experimental: as §1

AQP2 = assay: dDAVP-induced AQP2 mRNA expression in primary cultures of rat IMCD cells (real-time PCR); type: cell-based
Experimental: (§2) FIGS. 6A-C show the effect of ticagrelor on the mRNA expression of AQP2 (A) and AQP3 (B) relative to the expression R3-actin and the effect of ticagrelor on the mRNA expression of AQP2 relative to GAPDH (C) in primary cultures of rat inner medullary collecting duct (IMCD) cells. Cells were incubated with different concentrations of ticagrelor (0.5 to 25 μM) for 48 hours. During the second 24 hours, the cells were challenged with dDAVP (20 nM). The numbers in parentheses above the bars indicate the number of culture wells.
(§3) Primary cultures of rat inner medullary collecting duct (IMCD) cells were prepared. When the cells became 70-80% confluent, the medium was changed to relative starvation mode (low FBS), and used for testing the effect of Desmopressin (dDAVP), a V2 receptor-selective analogue of AVP, and/or ticagrelor. Cells were incubated for 48 h with ticagrelor ranging from 1.5 to 25 μM. During the second 24 hours, cells were challenged with dDAVP (20 nM). At the end of the incubation period, cells were harvested, RNA extracted, reverse transcribed and subjected to real-time PCR to determine the expression of AQP2 and AQP3 genes relative to the expression of the housekeeping genes (β-actin or GAPDH).
(§4) Results (FIGS. 6A-C) are presented as percent of the values in control incubations without any addition of agents. FIGS. 6A-C show the effect of different concentrations of ticagrelor on dDAVP (20 nM)-induced AQP2 or AQP3 expression relative to p-actin expression in primary cultures of rat IMCD cells. Two independent assays on primary cultures of IMCD cells derived from two different rats at different times were used, and the data obtained were pooled for analysis and presentation in the graphs. Data were analyzed by analysis of variance (ANOVA) followed by Tukey-Kramer Multiple Comparison Test. The numbers in parentheses above the bars indicate the number of culture wells.

AQP3 = assay: dDAVP-induced AQP3 mRNA expression in primary cultures of rat IMCD cells (real-time PCR); type: cell-based
Experimental: as §2, §3, §4

[4] = test system: medullary collecting duct cells; assay: Proliferation of medullary collecting duct cells; type: cell-based; settings: increasing concentrations of ticagrelor
[5] = patients; long-term administration; cited from earlier work
CYP3A4 system = CYP3A4 system (Homo sapiens, UniProt P08684); settings: cited from earlier work
vasopressin V2 receptor = vasopressin V2 receptor (Homo sapiens, UniProt P30518); settings: chronic blockade of vasopressin V2 receptor; cited from earlier work
[6] = test system: DBA/2FG-pcy mouse model of ADPKD; settings: tolvaptan concentrations between 0.01% and 0.30% in food; cited from earlier work
[7] = in vivo; cited from earlier work
ADPKD = settings: clinical trials; cited from earlier work
[8] = ticagrelor 0.05 to 0.25% in food, 14 days
[9] = different concentrations of ticagrelor 48 h, dDAVP 20 nM during second 24 h
[10] = different concentrations of ticagrelor 48 h, dDAVP 20 nM during second 24 h, listed as Ticagrelor
[11] = ticagrelor 2 μM, listed as Ticagrelor
[12] = ticagrelor 10 μM, listed as Ticagrelor

CYP3A4 system, sequence (P08684 whole entry): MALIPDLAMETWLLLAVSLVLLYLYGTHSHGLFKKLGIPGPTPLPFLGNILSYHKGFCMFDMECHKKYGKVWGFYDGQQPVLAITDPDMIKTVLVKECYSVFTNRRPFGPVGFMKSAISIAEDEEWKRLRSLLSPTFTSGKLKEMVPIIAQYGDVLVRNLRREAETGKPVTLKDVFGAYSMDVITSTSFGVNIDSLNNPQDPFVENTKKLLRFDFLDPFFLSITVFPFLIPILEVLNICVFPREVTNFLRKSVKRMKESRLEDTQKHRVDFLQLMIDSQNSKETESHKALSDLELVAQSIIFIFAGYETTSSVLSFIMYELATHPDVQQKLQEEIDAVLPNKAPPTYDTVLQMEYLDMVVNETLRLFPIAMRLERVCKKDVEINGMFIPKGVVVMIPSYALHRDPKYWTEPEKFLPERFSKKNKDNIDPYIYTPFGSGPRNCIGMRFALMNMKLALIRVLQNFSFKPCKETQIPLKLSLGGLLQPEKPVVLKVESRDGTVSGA
vasopressin V2 receptor, sequence (P30518 whole entry, species assumed): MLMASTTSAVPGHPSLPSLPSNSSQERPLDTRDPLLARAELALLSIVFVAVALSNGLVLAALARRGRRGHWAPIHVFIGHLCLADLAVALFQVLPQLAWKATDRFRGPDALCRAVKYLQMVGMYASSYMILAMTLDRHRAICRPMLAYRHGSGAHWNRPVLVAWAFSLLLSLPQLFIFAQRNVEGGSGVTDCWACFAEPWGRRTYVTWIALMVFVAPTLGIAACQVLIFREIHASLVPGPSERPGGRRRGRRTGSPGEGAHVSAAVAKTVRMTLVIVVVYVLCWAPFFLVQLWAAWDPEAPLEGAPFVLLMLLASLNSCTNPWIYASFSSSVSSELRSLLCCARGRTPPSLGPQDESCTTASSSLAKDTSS
T1 sequence (Q9EPX4 whole entry): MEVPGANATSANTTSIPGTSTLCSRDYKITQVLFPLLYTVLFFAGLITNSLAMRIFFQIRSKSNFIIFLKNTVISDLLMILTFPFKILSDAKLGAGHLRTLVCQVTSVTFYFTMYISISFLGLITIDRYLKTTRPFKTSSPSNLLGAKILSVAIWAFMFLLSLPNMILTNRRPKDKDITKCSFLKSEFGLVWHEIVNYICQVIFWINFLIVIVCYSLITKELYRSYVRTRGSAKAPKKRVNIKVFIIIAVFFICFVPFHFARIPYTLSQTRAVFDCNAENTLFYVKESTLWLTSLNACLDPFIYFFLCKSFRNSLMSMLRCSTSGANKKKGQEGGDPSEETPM

Cc1ccccc1C(=O)Nc1ccc(C(=O)N2CCCC(N(C)C)c3ccccc32)cc1 (stereo not drawn) [OPC-31260]
cystogenesis (rodent models of ADPKD): consistently inhibited

Nc1c(S(=O)(=O)O)cc(Nc2ccc(Nc3ccccc3)c(S(=O)(=O)O)c2)c2c1C(=O)c1ccccc1C2=O [PSB-0739]
expression of AVP (P2Y12 receptor): increased

COC(=O)[C@H](c1ccccc1Cl)N1CCc2sccc2C1 [clopidogrel, clopidogrel bisulfate]
effects shown in FIGS. 2-5 (urine output, urine osmolality, urinary AVP) (B6D2 mice): could not be seen
effect on the production of AVP by the hypothalamus (B6D2 mice; mouse, in vivo): did not have such an effect
lithium-induced NDI [1]: significantly ameliorate

NC(=O)CC[C@@H]1NC(=O)[C@H](Cc2ccccc2)NC(=O)[C@H](Cc2ccc(O)cc2)NC(=O)CCSSC[C@@H](C(=O)N2CCC[C@H]2C(=O)N[C@H](CCCN=C(N)N)C(=O)NCC(N)=O)NC(=O)[C@H](CC(N)=O)NC1=O [desmopressin, Desmopressin]
increase in cellular cAMP levels ([2]; 20 nM desmopressin, IMCD cells): 3.6 fold

CC(=O)Oc1cc2c(s1)CCN(C(C(=O)C1CC1)c1ccccc1F)C2 (stereo not drawn) [prasugrel]
effects shown in FIGS. 2-5 (urine output, urine osmolality, urinary AVP) (B6D2 mice): could not be seen

CCCSc1nc(N[C@@H]2C[C@H]2c2ccc(F)c(F)c2)c2nnn([C@@H]3C[C@H](OCCO)[C@@H](O)[C@H]3O)c2n1 [ticagrelor]
urinary AVP (vasopressin) (B6D2 mice; 0.25% ticagrelor in the food): marked decrease
urine concentrating ability (B6D2 mice; 0.25% ticagrelor in the food): significant reduction
urinary AVP (B6D2 mice; lower doses of ticagrelor in the food): minimal effect
urine osmolality (B6D2 mice; [8]): decrease
urine output (B6D2 mice; [8]): increase
urinary AVP excretion (B6D2 mice; ticagrelor 0.05 to 0.25% in food, 14 days, 24-hour urine, normal mice): dose-related decrease; also recorded: dose-dependent decrease
urinary concentrating ability (B6D2 mice; ticagrelor 0.05 to 0.25% in food, 14 days, assessed by urine output and osmolality): dose-related decrease; also recorded: dose-dependent decrease
plasma ticagrelor level above which the relation to urine osmolality and AVP was more pronounced [3]: above 1.30 μM
effect on dDAVP-induced AQP2 mRNA expression (AQP2; [9]): augmented
effect on dDAVP-induced AQP2 mRNA expression (AQP2; [10]): tendency for concentration-dependent enhancement
effect on dDAVP-induced AQP2 mRNA expression (AQP2; ticagrelor 2 μM): augmentative effect was seen; also recorded: tendency to augment
effect on dDAVP-induced AQP2 mRNA expression (AQP2; [11]): statistically significant
effect on dDAVP-induced increase in AQP2 expression (AQP2; ticagrelor 5 μM): did not suppress
effect on dDAVP-induced AQP2 mRNA expression (AQP2; ticagrelor 10 μM): more prominent
effect on dDAVP-induced AQP2 mRNA expression (AQP2; [12]): statistically significant
effect on AQP2 gene expression (AQP2; ticagrelor 25 μM): suppressing the gene expression to a very low level; also recorded: almost completely suppressed
effect on dDAVP-induced AQP3 mRNA expression (AQP3; [9]): augmented
effect on dDAVP-induced AQP3 mRNA expression (AQP3; [10]): tendency for concentration-dependent enhancement
effect on dDAVP-induced AQP3 mRNA expression (AQP3; ticagrelor 2 μM): augmentative effect was seen; also recorded: tendency to augment
effect on dDAVP-induced AQP3 mRNA expression (AQP3; [11]): statistically significant
effect on dDAVP-induced increase in AQP3 expression (AQP3; ticagrelor 5 μM): did not suppress
effect on dDAVP-induced AQP3 mRNA expression (AQP3; ticagrelor 10 μM): more prominent
effect on dDAVP-induced AQP3 mRNA expression (AQP3; [12]): statistically significant
effect on AQP3 gene expression (AQP3; ticagrelor 25 μM): suppressing the gene expression to a very low level; also recorded: almost completely suppressed
effect on desmopressin-induced cAMP levels ([2]; 5 μM ticagrelor, 48 h, dDAVP 20 nM): did not have any significant effect
proliferation of medullary collecting duct cells [4]: decrease
side effects [5]: uncontrolled bleeding from wounds or internal ulcers

Cc1ccccc1C(=O)Nc1ccc(C(=O)N2CCCC(O)c3cc(Cl)ccc32)c(C)c1 (stereo not drawn) [tolvaptan]
cyst growth (rodent models of ADPKD; experimental models of ADPKD): slow down the cyst growth
cystogenesis (rodent models of ADPKD): consistently inhibited
side effects [5]: severe polyuria (loss of water in the urine), nocturia (frequent urination in the night), thirst and dry mouth; also recorded: constipation, loss of appetite, dry skin, nausea, vomiting, and potential for acute liver failure
metabolism (CYP3A4 system): metabolized by the CYP3A4 system
endogenous production of AVP (vasopressin V2 receptor): increased
optimum concentration in food [6]: 0.10%
pharmacokinetics [7]: dose-related pharmacokinetics, it is unpredictable in ADPKD patients
efficacy for the treatment of ADPKD (ADPKD): established
